Results on five compounds are retold here after publication PMC10746543, “Design principles for cyclin K molecular glue degraders” (Nature Chemical Biology, 2023).

In experiment [1] the test system is HEK293T cells. In words: Drug sensitivity assay (CellTiter-Glo viability) with or without MLN4924 pretreatment. The experiment is classed as cell-based, human. Conditions: for EC50: Homo sapiens, HEK-293T; for Toxicity rescue: MLN4924-mediated cytotoxicity rescue, 10 µM used where n.d. The essentials:
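Cas9-expressing HEK293T cells receive either vehicle or 100 nM MLN4924, then compounds 2 h afterwards. After three days, luminescence-based viability is measured and calculated relative to DMSO.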
On the technique in general: In ATP-based viability assays light output follows the ATP content of the culture.

Experiment [2] concerns the target T1, CDK12–cyclin K and DDB1 (Homo sapiens, UniProt Q16531+Q9NYV4, K965R).
T1 construct: His6–CDK12 (a.a. 713–1,052); full-length or beta-propeller B domain deletion (ΔBPB: a.a. 396–705 deleted) constructs of His6–DDB1ΔBPB, StrepII–Avi–DDB1, or His6–Spy–DDB1; made in house; host or cells: Trichoplusia ni High Five insect cells (baculovirus)
In words: TR-FRET ternary complex formation assay (compound titration). The class given is binding. Conditions: for TR-FRET signal at compound concentration: replicate titrations. The gist of the method: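 A time delay of 70 μs preceded acquisition, limiting background fluorescence; the ratio of emission at 520 versus 490 nm gave the TR-FRET value.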
Background: In TR-FRET formats the signal depends on donor and acceptor labels being close together.

In experiment [3] the test system is cyclin K–eGFP degradation reporter. The experiment in a line: Cyclin K reporter stability analysis (dual-color cyclin K–eGFP reporter). The experiment is classed as cell-based, human. The gist of the method:
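HEK293T–Cas9 cells carrying the cyclin K–eGFP reporter were seeded at 1 × 10^6 ml^−1 and exposed to drug or DMSO for 5 h. Flow cytometry gave geometric means of eGFP and mCherry in round, mCherry-positive cells. The eGFP/mCherry ratio was normalized to the mean of three DMSO controls.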

Setting [4] is: Supplementary Table 2, HEK293T viability, 72 h, compound alone, read-out: Cellular assays EC50.
[5] abbreviates: compound concentration 79.2001 nM.
The mark [6] stands for this setting: compound concentration 158.4 nM.
[7] abbreviates: compound concentration 309.6 nM.
[8] abbreviates: compound concentration 626.401 nM.
Setting [9] is: compound concentration 1252.8 nM.
Setting [10] is: compound concentration 9936.01 nM.
The mark [11] stands for this setting: compound concentration 20016 nM.
Setting [12] is: Supplementary Table 2, HEK293T cycK-eGFP reporter, 5 h, read-out: Cellular assays DC50.
Where [13] appears, read: Supplementary Fig. 5, HEK293T, CellTiter Glo, 72h, pre-treatment with 100 nM MLN4924, read-out: Viability EC50, with MLN4924.
[14] abbreviates: Supplementary Table 2, read-out: TR-FRET EC50 TR-FRET.
Where [15] appears, read: compound concentration 0.468 nM.
Where [16] appears, read: compound concentration 7.92001 nM.
Where [17] appears, read: compound concentration 15.84 nM.
[18] abbreviates: compound concentration 30.96 nM.
[19] abbreviates: compound concentration 62.6401 nM.
Setting [20] is: compound concentration 125.28 nM.
Where [21] appears, read: compound concentration 244.8 nM.
The mark [22] stands for this setting: compound concentration 993.601 nM.
Setting [23] is: compound concentration 2001.6 nM.
Where [24] appears, read: in vitro complex formation, 50 nM CDK12–cyclin K, 100 nM DDB1, text and figures, read-out: TR-FRET EC50.

“And” between values parts separate entries of the source, which are not always exact repeats. Identical values can stand only once. Like-named read-outs stand apart in the source and are kept apart here.

T1 sequence (Q9NYV4 713-1052 K965R): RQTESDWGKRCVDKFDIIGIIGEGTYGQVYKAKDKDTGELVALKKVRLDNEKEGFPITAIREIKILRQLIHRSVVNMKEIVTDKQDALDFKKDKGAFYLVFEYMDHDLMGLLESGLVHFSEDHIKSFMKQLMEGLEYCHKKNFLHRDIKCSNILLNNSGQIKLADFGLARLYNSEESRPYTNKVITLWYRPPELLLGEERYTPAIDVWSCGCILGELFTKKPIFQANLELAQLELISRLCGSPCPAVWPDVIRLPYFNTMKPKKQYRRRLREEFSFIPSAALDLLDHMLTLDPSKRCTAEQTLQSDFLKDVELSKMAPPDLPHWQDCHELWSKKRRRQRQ
T1 sequence (O75909 1-267 partner): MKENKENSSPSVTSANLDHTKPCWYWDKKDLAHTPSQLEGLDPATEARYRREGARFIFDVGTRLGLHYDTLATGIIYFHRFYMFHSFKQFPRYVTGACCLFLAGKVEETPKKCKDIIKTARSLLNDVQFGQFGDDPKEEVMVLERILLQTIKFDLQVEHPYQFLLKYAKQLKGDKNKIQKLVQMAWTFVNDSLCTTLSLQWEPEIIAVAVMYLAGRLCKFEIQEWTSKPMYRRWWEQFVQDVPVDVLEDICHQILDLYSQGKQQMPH
T1 sequence (Q16531 whole entry): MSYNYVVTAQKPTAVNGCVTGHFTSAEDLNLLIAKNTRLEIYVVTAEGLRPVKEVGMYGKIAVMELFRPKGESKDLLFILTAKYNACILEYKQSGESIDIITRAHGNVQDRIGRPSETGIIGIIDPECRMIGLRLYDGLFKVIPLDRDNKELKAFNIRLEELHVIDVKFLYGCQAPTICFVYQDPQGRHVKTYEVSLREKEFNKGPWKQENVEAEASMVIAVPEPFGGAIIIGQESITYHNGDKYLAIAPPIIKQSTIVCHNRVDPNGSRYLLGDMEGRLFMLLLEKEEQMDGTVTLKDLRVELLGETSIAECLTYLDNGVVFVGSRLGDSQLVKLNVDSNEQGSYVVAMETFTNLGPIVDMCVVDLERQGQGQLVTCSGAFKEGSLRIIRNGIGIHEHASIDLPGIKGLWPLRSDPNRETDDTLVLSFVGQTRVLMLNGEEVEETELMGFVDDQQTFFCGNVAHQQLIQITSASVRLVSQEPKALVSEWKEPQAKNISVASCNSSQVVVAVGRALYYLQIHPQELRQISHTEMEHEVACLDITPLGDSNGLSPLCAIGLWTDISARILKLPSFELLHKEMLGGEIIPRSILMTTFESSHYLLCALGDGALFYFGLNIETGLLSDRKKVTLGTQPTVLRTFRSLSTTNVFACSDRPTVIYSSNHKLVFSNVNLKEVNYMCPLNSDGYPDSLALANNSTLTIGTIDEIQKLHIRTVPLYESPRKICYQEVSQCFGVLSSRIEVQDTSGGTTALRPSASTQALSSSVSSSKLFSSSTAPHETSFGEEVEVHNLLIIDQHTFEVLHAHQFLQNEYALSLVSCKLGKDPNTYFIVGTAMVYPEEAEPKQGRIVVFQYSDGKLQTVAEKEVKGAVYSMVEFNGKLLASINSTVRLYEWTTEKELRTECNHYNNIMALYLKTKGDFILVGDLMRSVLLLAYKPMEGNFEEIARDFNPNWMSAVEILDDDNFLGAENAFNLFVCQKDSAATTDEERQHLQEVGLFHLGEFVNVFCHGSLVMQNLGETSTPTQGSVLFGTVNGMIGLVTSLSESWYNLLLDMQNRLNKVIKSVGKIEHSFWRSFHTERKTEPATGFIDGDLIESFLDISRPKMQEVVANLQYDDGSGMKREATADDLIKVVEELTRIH

The EC50 is the concentration at which the effect is half-maximal. In general, DC50 refers to the concentration giving 50% degradation. Take `CC[C@H](CO)Nc1nc(NCCC2CC2)c2ncn(C(C)C)c2n1` [DS37]: the EC50 in experiment [1] (setting [4]) was greater than 10 µM. Moreover, the Toxicity rescue in experiment [1] (Supplementary Table 2) is recorded as 0%. In addition, the “TR-FRET signal, individual replicate” value in experiment [2] (compound concentration 4.68 nM) was 0.1908 and 0.2636; in experiment [2] (compound concentration 21.6 nM), 0.201 and 0.2304; in experiment [2] (compound concentration 36 nM), 0.2177 and 0.2395; in experiment [2] (setting [5]), 0.2212 and 0.2472; in experiment [2] (setting [6]), 0.2411 and 0.2679; in experiment [2] (setting [7]), 0.2728 and 0.306. The “TR-FRET signal, individual replicate” value in experiment [2] (setting [8]) was 0.3075 and 0.349; in experiment [2] (setting [9]), 0.3712 and 0.4097; in experiment [2] (compound concentration 2448 nM), 0.4307 and 0.4643; in experiment [2] (setting [10]) it was 0.5169 and 0.5543; in experiment [2] (setting [11]), 0.5088 and 0.5368. Besides, the DC50 in experiment [3] (setting [12]) was greater than 10 µM.

Consider `CC(C)(C)c1cnc(CSc2cnc(NC(=O)C3CCNCC3)s2)o1` [SNS032, reference compound], for which the EC50 in experiment [1] (setting [4]) came to 0.265 µM. Further, the “% MLN4924 rescue” value in experiment [1] (PCA input) came out at 0%. In addition, the Toxicity rescue in experiment [1] (Supplementary Table 2) is reported as -22%. Moreover, the TR-FRET signal in experiment [2] (compound concentration 4.68 nM) was 0.1508 and 0.1736; in experiment [2] (compound concentration 21.6 nM), 0.2014 and 0.2318; in experiment [2] (compound concentration 36 nM) it was 0.2617 and 0.2904; in experiment [2] (setting [5]), 0.3013 and 0.3457; in experiment [2] (setting [6]) it was 0.3207 and 0.3602; in experiment [2] (setting [7]), 0.329 and 0.3662. Besides, the TR-FRET signal in experiment [2] (setting [8]) is 0.3309 and 0.3799; in experiment [2] (setting [9]) it was 0.346 and 0.4035; in experiment [2] (compound concentration 2448 nM), 0.3618 and 0.4046; in experiment [2] (setting [10]) it was 0.3822 and 0.42; in experiment [2] (setting [11]), 0.3638 and 0.4143. Also, the “DDB1–CDK12 complex formation, result in words” value in experiment [2] (in vitro TR-FRET) was “no gain-of-function activity”. The DC50 in experiment [3] (setting [12]) was greater than 10 µM.

`Cn1cc(-n2cnc3c(NCc4nc5cc(O)ccc5[nH]4)nc(N4CCOCC4)nc32)cn1` [DS54]: the EC50 is 3.29 µM in experiment [1] (setting [13]); 0.073 µM in experiment [1] (Supplementary Fig. 5, HEK293T, CellTiter Glo, 72h, read-out: Viability EC50, no MLN4924); greater than 10 µM in experiment [1] (setting [4]); 0.252 µM in experiment [2] (setting [14]). The Toxicity rescue in experiment [1] (Supplementary Table 2) came out at 0%. Also, the TR-FRET signal is 0.1326 and 0.1303 in experiment [2] (compound concentration 4.68 nM); 0.1333 and 0.1406 in experiment [2] (compound concentration 21.6 nM); 0.1624 and 0.1682 in experiment [2] (compound concentration 36 nM); 0.2054 and 0.2174 in experiment [2] (setting [5]); 0.3007 in experiment [2] (setting [6]); 0.4286 and 0.4588 in experiment [2] (setting [7]). Also, the TR-FRET signal was 0.5953 and 0.5848 in experiment [2] (setting [8]); 0.6865 and 0.6689 in experiment [2] (setting [9]); 0.7142 and 0.68 in experiment [2] (compound concentration 2448 nM); 0.6777 and 0.6603 in experiment [2] (setting [10]); 0.6177 and 0.617 in experiment [2] (setting [11]). Besides, the “TR-FRET signal at compound concentration 4.68 nM” value in experiment [2] (compound concentration 4.68 nM, raw replicate titration data) was 0.1326 and 0.1303. For the same compound, in experiment [2] (compound concentration 21.6 nM, raw replicate titration data), the “TR-FRET signal at compound concentration 21.6 nM” value is 0.1333 and 0.1406. For the same compound, the “TR-FRET signal at compound concentration 36 nM” value in experiment [2] (compound concentration 36 nM, raw replicate titration data) was 0.1624 and 0.1682. Further, in experiment [2] (compound concentration 79.2001 nM, raw replicate titration data), the “TR-FRET signal at compound concentration 79.2001 nM” value is 0.2054 and 0.2174. The “TR-FRET signal at compound concentration 158.4 nM” value in experiment [2] (compound concentration 158.4 nM, raw replicate titration data) is recorded as 0.3007. In addition, the “TR-FRET signal at compound concentration 309.6 nM” value in experiment [2] (compound concentration 309.6 nM, raw replicate titration data) was 0.4286 and 0.4588. The “TR-FRET signal at compound concentration 626.401 nM” value in experiment [2] (compound concentration 626.401 nM, raw replicate titration data) was 0.5953 and 0.5848. For the same compound, the “TR-FRET signal at compound concentration 1252.8 nM” value in experiment [2] (compound concentration 1252.8 nM, raw replicate titration data) was 0.6865 and 0.6689. Further, in experiment [2] (compound concentration 2448 nM, raw replicate titration data), the “TR-FRET signal at compound concentration 2448 nM” value was 0.7142 and 0.68. In experiment [2] (compound concentration 9936.01 nM, raw replicate titration data), the “TR-FRET signal at compound concentration 9936.01 nM” value is 0.6777 and 0.6603. In addition, the “TR-FRET signal at compound concentration 20016 nM” value in experiment [2] (compound concentration 20016 nM, raw replicate titration data) is 0.6177 and 0.617. Moreover, the DC50 in experiment [3] (setting [12]) is greater than 10 µM.

`CC[C@H](CO)Nc1nc(NCCCc2cccc(O)c2)c2ncn(C(C)C)c2n1` [DS68]: the EC50 in experiment [1] (setting [13]) was determined as 109 µM; in experiment [1] (setting [4]), 2.52 µM; in experiment [2] (setting [24]), 0.104 ± 0.007 µM; in experiment [2] (source data sheet correlations, read-out: TR-FRET EC50), 0.104 µM. In addition, in experiment [1] (Supplementary Table 2), the Toxicity rescue is recorded as 296%. Further, the TR-FRET signal was 0.3136 and 0.2898 in experiment [2] (setting [15]); 0.3334 and 0.33 in experiment [2] (compound concentration 2.16 nM); 0.3697 and 0.368 in experiment [2] (compound concentration 3.6 nM); 0.4418 and 0.4327 in experiment [2] (setting [16]); 0.566 and 0.543 in experiment [2] (setting [17]); 0.7892 and 0.7403 in experiment [2] (setting [18]). Further, the TR-FRET signal in experiment [2] (setting [19]) is 1.141 and 1.026; in experiment [2] (setting [20]), 1.566 and 1.513; in experiment [2] (setting [21]), 2.027 and 2.001; in experiment [2] (setting [22]), 2.439 and 2.564; in experiment [2] (setting [23]), 2.241 and 2.631. The “TR-FRET signal at compound concentration” value in experiment [2] (setting [15]) was 0.3136 and 0.2898; in experiment [2] (compound concentration 2.16 nM), 0.3334 and 0.33; in experiment [2] (compound concentration 3.6 nM), 0.3697 and 0.368; in experiment [2] (setting [16]) it was 0.4418 and 0.4327; in experiment [2] (setting [17]) it was 0.566 and 0.543; in experiment [2] (setting [18]), 0.7892 and 0.7403. The “TR-FRET signal at compound concentration” value in experiment [2] (setting [19]) is 1.141 and 1.026; in experiment [2] (setting [20]), 1.566 and 1.513; in experiment [2] (setting [21]), 2.027 and 2.001; in experiment [2] (setting [22]), 2.439 and 2.564; in experiment [2] (setting [23]), 2.241 and 2.631. Further, the 50% degradation concentration (DC50) in experiment [3] (source data sheet correlations, read-out: DC50) was 0.571 µM.

As to `CC[C@H](CO)Nc1nc(NCc2ccc(-c3ccc4ccccc4c3)cc2)c2ncn(C(C)C)c2n1` [DS05], the EC50 in experiment [1] (setting [4]) is greater than 10 µM; in experiment [2] (setting [14]), 0.935 µM; in experiment [2] (setting [24]), 0.936 ± 0.112 µM; in experiment [2] (sheet MOESM7, read-out: log TR-FRET EC50 (converted)) it was 0.935 µM. The Toxicity rescue in experiment [1] (Supplementary Table 2) is 0%. Moreover, the “TR-FRET signal at compound concentration” value was 0.139 and 0.157 in experiment [2] (compound concentration 4.68 nM); 0.1423 and 0.1615 in experiment [2] (compound concentration 21.6 nM); 0.1531 and 0.1764 in experiment [2] (compound concentration 36 nM); 0.1718 and 0.1914 in experiment [2] (setting [5]); 0.1925 and 0.2133 in experiment [2] (setting [6]); 0.2424 and 0.278 in experiment [2] (setting [7]). Further, the “TR-FRET signal at compound concentration” value in experiment [2] (setting [8]) is 0.3125 and 0.3604; in experiment [2] (setting [9]) it was 0.4172 and 0.4741; in experiment [2] (compound concentration 2448 nM), 0.5249 and 0.5984; in experiment [2] (setting [10]), 0.656 and 0.7191; in experiment [2] (setting [11]), 0.5857 and 0.628. The DC50 in experiment [3] (setting [12]) is greater than 10 µM.
